In patent US12285012B2, “Compositions comprising pyridine carboxylate herbicides with acetolactate synthase (ALS) inhibitor herbicides” (Corteva Agriscience LLC, priority 2018, dated 2025):
Like-named read-outs stand apart in the source and are kept apart here.

Legend:
spring wheat (TRZAS) = type: in vivo, Triticum aestivum
Method: (§1) The plants were grown for 7-36 days (d) in a greenhouse with an approximate 14-hour (h) photo-period which was maintained at about 23° C. during the day and 22° C. during the night. Nutrients and water were added on a regular basis and supplemental lighting was provided with overhead metal halide 1000-Watt lamps as necessary. The plants were employed for testing when they reached the second or third true leaf stage.
(§2) The emulsifiable concentrates also included a safener, cloquintocet-mexyl, at 120 grams active ingredient per liter (g ai/L), unless otherwise noted below.
(§3) Control plants were sprayed in the same manner with the solvent blank. All pyridine carboxylate herbicide (component a) application rates are given as “g ae/ha” and all ALS inhibitor (component b) application rates are given as “g ai/ha.”
(§4) The treated plants and control plants were placed in a greenhouse as described above and watered by sub-irrigation to prevent wash-off of the test compounds. After 20-22 d, the condition of the test plants as compared with that of the control plants was determined visually and scored on a scale of 0 to 100 percent where 0 corresponds to no injury and 100 corresponds to complete kill.

spring barley (HORVS) = type: in vivo, Hordeum vulgare
Method: as §1, §2, §3, §4

[1] = test system: wild chamomile (MATCH, Matricaria chamomilla); test: Greenhouse postemergence herbicidal effect; type: in vivo
Method: as §1, §2, §3, §4

[2] = test system: Canadian thistle (CIRAR, Cirsium arvense); test: Greenhouse postemergence herbicidal effect; type: in vivo
Method: as §1, §2, §3, §4

[3] = test system: spring rape (BRSNN, Brassica napus); test: Greenhouse postemergence herbicidal effect; type: in vivo
Method: as §1, §2, §3, §4

[4] = test system: Russian thistle (SASKR, Salsola kali); test: Greenhouse postemergence herbicidal effect; type: in vivo
Method: as §1, §2, §3, §4

[5] = test system: wild mustard (SINAR, Sinapis arvensis); test: Greenhouse postemergence herbicidal effect; type: in vivo
Method: as §1, §2, §3, §4

[6] = test system: kochia (KCHSC, Kochia scoparia); test: Greenhouse postemergence herbicidal effect; type: in vivo
Method: (§5) Seeds of the desired test plant species were planted in a 90:10% v/v (volume/volume) mixture of PRO-MIX® BX (Premier Tech Horticulture, Quakertown, PA, USA) and PROFILE® GREENS GRADE™ (Profile Products LLC, Buffalo Grove, IL, USA) planting mixture, which typically has a pH of 5.2 to 6.2 and an organic matter content of at least 50 percent, in plastic pots with a surface area of 103.2 square centimeters (cm^2). […] The plants were grown for 7-36 days (d) in a greenhouse with an approximate 14-hour (h) photo-period which was maintained at about 23° C. during the day and 22° C. during the night. Nutrients and water were added on a regular basis and supplemental lighting was provided with overhead metal halide 1000-Watt lamps as necessary. The plants were employed for testing when they reached the second or third true leaf stage.
(§6) Emulsifiable concentrates of each of each pyridine carboxylate herbicide (Compound A or Compound B) were prepared at 100 grams acid equivalent per liter (g ae/L). The emulsifiable concentrates also included a safener, cloquintocet-mexyl, at 120 grams active ingredient per liter (g ai/L), unless otherwise noted below. An aliquot of each emulsifiable concentrate was placed in a 25 mL glass vial and diluted with an aqueous mixture of 1.25% (v/v) ACTIROB® B esterified rapeseed oil (Bayer Crop Science, Research Triangle Park, NC, USA) or MSO® Concentrate with LECI-TECH® methylated soybean oil (Loveland Products, Loveland, CO, USA) to obtain concentrated stock solutions at the highest application rate for each herbicide, based upon a 12 milliliter (mL) application volume at a rate of 187 liters per hectare (L/ha). The concentrated stock solutions were further diluted with an aqueous mixture of 1.25% v/v ACTIROB® B or MSO® Concentrate with LECI-TECH® to obtain stock solutions at reduced application rates for each herbicide. Spray solutions of the herbicide combinations (Compound A or Compound B plus ALS herbicide) were prepared by adding weighed amounts or aliquots of the ALS herbicides to the stock solutions of Compound A or Compound B to form 12-mL spray solutions in two- or three-way combinations.
(§7) The spray solutions were applied to the plant material with an overhead Mandel track sprayer equipped with 8002E nozzles calibrated to deliver 187 L/ha over an application area of 0.503 square meters (m^2) at a spray height of 18 inches (43 centimeters (cm)) above the average plant canopy. Control plants were sprayed in the same manner with the solvent blank. All pyridine carboxylate herbicide (component a) application rates are given as “g ae/ha” and all ALS inhibitor (component b) application rates are given as “g ai/ha.”
as §4

[7] = test system: common lambsquarters (CHEAL, Chenopodium album L.); test: Greenhouse postemergence herbicidal effect; type: in vivo
Method: as §5, §6, §7, §4

[8] = test system: wild buckwheat (POLCO, Polygonum convolvulus); test: Greenhouse postemergence herbicidal effect; type: in vivo
Method: as §1, §2, §3, §4

[9] = test system: winter rape (BRSNW, Brassica napus); test: Greenhouse postemergence herbicidal effect; type: in vivo; settings: Amidosulfuron 45 g/ha
Method: as §1, §2, §3, §4

[10] = test system: wild pansy (VIOTR, Viola tricolor); test: Greenhouse postemergence herbicidal effect; type: in vivo
Method: as §1, §2, §3, §4

[11] = test system: pigweed (AMARE, Amaranthus retroflexus); test: Greenhouse postemergence herbicidal effect; type: in vivo
Method: as §1, §2, §3, §4

CON=C(C)c1cccc(Oc2nc(OC)cc(OC)n2)c1C(=O)O (mixture of isomers) [Pyriminobac, pyriminobac]
% visual injury, Obs (spring wheat (TRZAS); 17.5 g/ha): 0% | % visual injury, Obs (spring barley (HORVS); 17.5 g/ha): 0% | % visual injury, Obs ([1]; 17.5 g/ha): 5% | pest or weed control at 17.5 g/ha ([2]; Cirsium arvense, post-emergence, read-out: % visual injury, Obs): 0% | % visual injury, Obs ([3]; 17.5 g/ha): 0% | % visual injury, Obs ([4]; 17.5 g/ha): 0% | % visual injury, Obs ([5]; 17.5 g/ha): 5% | pest or weed control at 17.5 g/ha ([6]; Bassia scoparia, post-emergence, read-out: % visual injury, Obs): 0% | % visual injury, Obs ([7]; 17.5 g/ha): 5%

COc1cc(OC)nc(NC(=O)NS(=O)(=O)N(C)S(C)(=O)=O)n1 [Amidosulfuron, amidosulfuron]
% visual injury ([1]; Amidosulfuron 45 g/ha): 50% | % visual injury ([8]; Amidosulfuron 45 g/ha): 55% | % visual injury [9]: 98% | % visual injury ([2]; Amidosulfuron 45 g/ha): 18% | pest or weed control at 22.5 g/ha ([2]; Cirsium arvense, post-emergence, 22.5 g/ha, read-out: % visual injury, Obs): 15% | % visual injury, Obs ([10]; 22.5 g/ha): 18% | % visual injury, Obs ([3]; 22.5 g/ha): 98% | % visual injury ([11]; Amidosulfuron 45 g/ha): 100% | % visual injury ([5]; Amidosulfuron 45 g/ha): 82% | % visual injury ([6]; Amidosulfuron 45 g/ha): 5% | pest or weed control at 22.5 g/ha ([6]; Bassia scoparia, post-emergence, 22.5 g/ha, read-out: % visual injury, Obs): 15% | % visual injury ([7]; Amidosulfuron 45 g/ha): 25%

CCOc1nc(F)cc2nc(S(=O)(=O)Nc3c(Cl)cccc3C(=O)O)nn12 [Cloransulam, cloransulam]
% visual injury Obs (spring wheat (TRZAS); Cloransulam 17.5 g/ha): 0% | % visual injury Obs (spring barley (HORVS); Cloransulam 17.5 g/ha): 15% | % visual injury Obs ([1]; Cloransulam 17.5 g/ha): 40% | % visual injury Obs ([8]; Cloransulam 17.5 g/ha): 80% | % visual injury Obs ([3]; Cloransulam 17.5 g/ha): 100% | % visual injury Obs ([11]; Cloransulam 17.5 g/ha): 15% | % visual injury Obs ([4]; Cloransulam 17.5 g/ha): 25% | % visual injury Obs ([5]; Cloransulam 17.5 g/ha): 97% | % visual injury Obs ([6]; Cloransulam 17.5 g/ha): 0% | % visual injury Obs ([7]; Cloransulam 17.5 g/ha): 0%

CCOc1nc(F)cc2nc(S(=O)(=O)Nc3c(Cl)cccc3Cl)nn12 [Diclosulam, diclosulam]
% visual injury Obs ([1]; Diclosulam 17.5 g/ha): 68% | % visual injury Obs ([8]; Diclosulam 17.5 g/ha): 98% | % visual injury Obs ([3]; Diclosulam 17.5 g/ha): 100% | % visual injury Obs ([11]; Diclosulam 17.5 g/ha): 85% | % visual injury Obs ([4]; Diclosulam 17.5 g/ha): 25% | % visual injury Obs ([5]; Diclosulam 17.5 g/ha): 100% | % visual injury Obs ([6]; Diclosulam 17.5 g/ha): 0% | % visual injury Obs ([7]; Diclosulam 17.5 g/ha): 0%

COCc1cnc(C2=NC(C)(C(C)C)C(=O)N2)c(C(=O)O)c1 (centres unmarked) [Imazamox, imazamox]
pest or weed control at 17.5 g/ha ([2]; Cirsium arvense, post-emergence, 17.5 g/ha, read-out: % visual injury, Obs): 63% | % visual injury, Obs ([10]; 17.5 g/ha): 75%
